How the values were obtained:
withdrawal body shake = conditions: intraperitoneal, 0.16 mg/kg; cited from earlier work
[1] = Convulsions on intravenous clonidine (inventors' finding); assay type: in vivo; conditions: 10 mg/kg
[2] = system: jumping, a severer withdrawal symptom; conditions: intravenous, 0.1-0.10 mg/kg
[3] = in vivo; cited from earlier work
[4] = in vivo; cited from earlier work; remark: listed apart in the source

Q: What does the source list for Clc1cccc(Cl)c1N=C1NCCN1 [Clonidine, clonidine]?
A: suppression of withdrawal body shake (withdrawal body shake): suppress withdrawal body shake; convulsions [1]: causes convulsions; suppression of jumping [2]: fails to suppress jumping

Q: Which “difference between toxic and effective doses” value [3] does the source give for C[C@]12N[C@H](Cc3ccccc31)c1ccccc12 [Dizocilipine, dizocilpine] here?
A: extremely small difference between its toxic and effective doses

Q: With CCC(=O)C(CC(C)N(C)C)(c1ccccc1)c1ccccc1 (centres unmarked) [Methadone] as the molecule, how does the dependence to itself [4] read?
A: cause dependence to itself

From patent publication US5413993A, “Method for the treatment of narcotic withdrawal symptoms in animals using lipopolysaccharides” (priority 1992, dated 1995)
